From ChEMBL document CHEMBL3301361, “Experimental in vitro DMPK and physicochemical data on a set of publicly disclosed compounds” come the findings set out here.

A short description of series [1]: in vitro. The conditions noted are these: human.
Series [2] is described as follows: physchem. The conditions noted are these: pH 7.4 buffer.
A short description of series [3]: physchem. The following applies: octan-1-ol/water, pH 7.4, LogD7.4.
Series [4] in a line: in vitro. The conditions noted are these: human, plasma.

Each structure is given as a SMILES string. In brackets after ≈: the same amount, converted by molar mass.

`CN(C)CC(O)COc1ccc(Nc2ncc(Cl)c(Nc3ccccc3)n2)cc1` (stereo unspecified) came in with an intrinsic clearance (microsomal CLint) in series [1] (liver microsomes) of 5 µL/min/mg. This molecule also registered a thermodynamic solubility in series [2] of 38.9 µM (≈ 16.1 µg/mL).
In series [1] (liver microsomes), `Cc1ccc(F)c(Nc2ccnc(Nc3ccc(S(N)(=O)=O)cc3)n2)c1` showed an intrinsic metabolic clearance (microsomal CLint) of 18 µL/min/mg. Besides, in series [3], the logD came to 3.1. In series [2], this molecule registered a thermodynamic solubility of 4.4 µM (≈ 1.64 µg/mL).
For `CCN(C(=O)NCc1c(F)cccc1F)C1CCN(CCC(c2ccccc2)c2ccccc2)CC1`, the microsomal CLint in series [1] (liver microsomes) was found to be 6 µL/min/mg. Also, the thermodynamic solubility in series [2] turned out to be 24 µM (≈ 11.8 µg/mL).
As for `O=c1[nH]c(-c2ccc([N+](=O)[O-])cc2)nc2ccccc12`, the microsomal CLint in series [1] (microsomes) came out at 53.7 µL/min/mg. The logD in series [3] came to 2.5. Also, the thermodynamic solubility in series [2] worked out at 1.9 µM (≈ 0.508 µg/mL).
On to `CCCCCOc1ccc(C(=O)NC(C(=O)O)C(C)C)cc1` (stereo unspecified), for which, in series [1] (liver microsomes), the microsomal CLint worked out at 5.5 µL/min/mg. The molecule further had a fraction unbound at 5 h in series [4] of 0.0171.
As to `Nc1nnc(-c2ccccc2)s1`, the intrinsic clearance (microsomal CLint) in series [1] (liver microsomes) was 3 µL/min/mg. In addition, the logD in series [3] amounted to 1.8.
`Cc1noc(C)c1-c1ccc(CNS(=O)(=O)c2c(C)noc2C)cc1` came in with a microsomal CLint in series [1] (microsomes) of 60.3 µL/min/mg. Also, the fraction unbound at 5 h in series [4] (PPB) was 0.0752.
On the same counts, the results for `CCc1ccc(OCC(=O)O)c(-c2ccc(S(C)(=O)=O)cc2)c1` are less than 3 µL/min/mg and 0.0568.
Consider `CCS(=O)(=O)c1ccc(-c2cc(C(F)(F)F)ccc2O[C@@H](C)C(=O)O)c(C)c1`, for which the intrinsic clearance (microsomal CLint) in series [1] (liver microsomes) is less than 3 µL/min/mg. For the same molecule, the fraction unbound at 5 h in series [4] (PPB) was 0.0418.
As for `CN(C(=O)Cc1ccc(F)cc1)C1CCN(CCC(c2ccccc2)c2ccccc2)CC1`, the intrinsic clearance (microsomal CLint) in series [1] (liver microsomes) was less than 3 µL/min/mg. Further, the solubility (thermodynamic) in series [2] came to 129 µM (≈ 57.3 µg/mL).
Turning to `CCN(C(=O)NCc1ccc(S(C)(=O)=O)cc1)C1CCN(CCC(c2ccccc2)c2ccccc2)CC1`, in series [1] (liver microsomes), the microsomal CLint was less than 3 µL/min/mg. The log distribution coefficient (logD) in series [3] worked out at 2.86. In addition, in series [2], the solubility (thermodynamic) is 282 µM (≈ 150 µg/mL).
The corresponding values for `COc1ccc(CC(=O)N(C)C2CCN(CCC(c3ccccc3)c3ccccc3)CC2)cc1OC` are 112 µL/min/mg, 3.4 and 324 µM (≈ 157 µg/mL).
The corresponding values for `NC(=O)Nc1cc(-c2ccccc2)sc1C(N)=O` are 27 µL/min/mg, 2.43 and 17 µM (≈ 4.44 µg/mL).
On the same counts, the results for `CC(=O)Nc1ccc(CNc2[nH]nc3cccc(Oc4ccc(S(C)(=O)=O)cc4)c23)cc1` are 75 µL/min/mg, 2.63 and 4.3 µM (≈ 1.94 µg/mL).
As for `CSc1nccc(Nc2cc(NC(=O)c3cc(F)cc(N4CCOCC4)c3)ccc2C)n1`, in series [1] (liver microsomes), the intrinsic clearance (microsomal CLint) turned out to be 83 µL/min/mg. The thermodynamic solubility in series [2] worked out at 0.7 µM (≈ 0.317 µg/mL).
`COc1ccc(OC)c(CNc2[nH]nc3cccc(Oc4ccc(S(C)(=O)=O)cc4)c23)c1` returned a microsomal CLint in series [1] (liver microsomes) of 103 µL/min/mg. Besides, the logD in series [3] worked out at 3.71. In series [2], the solubility (thermodynamic) was 2.2 µM (≈ 0.998 µg/mL).
In series [1] (liver microsomes), `CC(=O)Nc1cccc2c1c(S(=O)(=O)c1ccc(Cl)cc1)c(C)n2CC(=O)O` gave an intrinsic metabolic clearance (microsomal CLint) of less than 3 µL/min/mg. In series [4] (PPB), this molecule gave a fraction unbound at 5 h of 0.0428.
As to `CCN(C(=O)Cc1ccc(S(C)(=O)=O)cc1)C1CCN(CC[C@@H](c2ccccc2)N2CCN(S(=O)(=O)C(F)(F)F)CC2)CC1`, the microsomal CLint in series [1] (liver microsomes) is 18 µL/min/mg. In series [2], this molecule registered a thermodynamic solubility of 288 µM (≈ 190 µg/mL).
In series [1] (microsomes), `CCN(C(=O)Cc1ccc(S(C)(=O)=O)cc1)C1CCN(CC[C@@H](c2cc(F)cc(F)c2)N2CCN(S(C)(=O)=O)CC2)CC1` gave a microsomal CLint of 7.5 µL/min/mg. This molecule also gave a log distribution coefficient (logD) in series [3] of 1.25. The molecule further gave a thermodynamic solubility in series [2] of 1260 µM (≈ 807 µg/mL).
For the molecule `CCN(C(=O)Cc1ccc(S(C)(=O)=O)cc1)C1CCN(CCC(c2ccccc2)c2ccc(C)cc2)CC1` (stereo unspecified), the intrinsic clearance (microsomal CLint) in series [1] (liver microsomes) is 66 µL/min/mg. The molecule also yielded a thermodynamic solubility in series [2] of 75.9 µM (≈ 40.4 µg/mL).
`CCN(C(=O)Cc1ccc(S(C)(=O)=O)cc1)C1CCN(CCC(c2ccccc2)c2ccc(NS(C)(=O)=O)cc2)CC1` (stereo unspecified) registered a microsomal CLint in series [1] (liver microsomes) of less than 3 µL/min/mg. In addition, in series [3], the logD was 1.84. The molecule further showed a solubility (thermodynamic) in series [2] of 174 µM (≈ 106 µg/mL).
The corresponding values for `CCN(C(=O)Cc1ccc(S(C)(=O)=O)cc1)C1CCN(CCC(c2ccccc2)c2ccc(NC(C)=O)cc2)CC1` (stereo unspecified) are less than 3 µL/min/mg, 2.09 and 692 µM (≈ 398 µg/mL).
`COc1ccccc1C(=O)Nc1ccc(C)c(-n2cnc3ccc(N4CCN(C)CC4)cc3c2=O)c1`: the microsomal CLint in series [1] (liver microsomes) is 7 µL/min/mg. This molecule came in with a logD in series [3] of 2.93. Also, the thermodynamic solubility in series [2] stood at 75.9 µM (≈ 36.7 µg/mL).
On the same counts, the results for `COc1cccc(C(=O)Nc2ccc(C)c(-n3cnc4ccc(N5CCN(C)CC5)cc4c3=O)c2)c1` are 16 µL/min/mg, 3.08 and 219 µM (≈ 106 µg/mL).
In turn, `Cc1ccc(NC(=O)c2ccccc2F)cc1-n1cnc2ccc(N3CCN(C)CC3)cc2c1=O` came in with a microsomal CLint in series [1] (microsomes) of 3 µL/min/mg. Also, the logD in series [3] is 2.75. The molecule also displayed a thermodynamic solubility in series [2] of 933 µM (≈ 440 µg/mL).
The corresponding values for `Cc1ccc(NC(=O)c2cncs2)cc1-n1cnc2ccc(N3CCN(C)CC3)cc2c1=O` are less than 3 µL/min/mg, 2.11 and 537 µM (≈ 247 µg/mL).

Usually microsomal CLint stands for the rate of metabolic loss divided by the concentration. One may read the thermodynamic solubility as the concentration in solution at equilibrium with solid. Usually logD stands for lipophilicity at a set pH, counting ionised and neutral species. High values mean a more lipophilic compound, low ones a more hydrophilic compound. Broadly, the fraction unbound is the share of the substance not bound to proteins or other matrix.
